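Protocol summary: plate cells (96-well), add compound at 5 concentrations, incubate 48 h, interpolate endpoints linearly. Definition used: TGI = concentration required for complete inhibition of growth.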
Tests used:
Assay in all cases: inhibition of tumour cell growth, NCI panel, 48 h
CAKI-1 renal = test system: CAKI-1 renal
MCF7 breast = test system: MCF7 breast
MDA-MB-435 = test system: MDA-MB-435
NCI-H522 lung = test system: NCI-H522 lung
OVCAR-3 ovarian = test system: OVCAR-3 ovarian
RPMI-8226 leukemia = test system: RPMI-8226 leukemia
SF-539 CNS = test system: SF-539 CNS
SK-OV-3 ovarian = test system: SK-OV-3 ovarian
SNB-19 CNS = test system: SNB-19 CNS
SW-620 colon = test system: SW-620 colon

| Compound | TGI (CAKI-1 renal) | TGI (MCF7 breast) | TGI (MDA-MB-435) | TGI (NCI-H522 lung) | TGI (OVCAR-3 ovarian) | TGI (RPMI-8226 leukemia) | TGI (SF-539 CNS) | TGI (SK-OV-3 ovarian) | TGI (SNB-19 CNS) | TGI (SW-620 colon) |
| --- | --- | --- | --- | --- | --- | --- | --- | --- | --- | --- |
| COC(=O)[C@@]12CC3CN(Cc4c1[nH]c1ccccc41)C2CC3=O | > 100 µM | > 100 µM | > 100 µM | > 100 µM | > 100 µM | > 100 µM | > 100 µM | > 100 µM | > 100 µM | > 100 µM |
| O=C(NC12CC3CC(CC(C3)C1)C2)n1cnc2cncnc21 | > 100 µM | > 100 µM | > 100 µM | 53.8 µM | 47 µM | 79.4 µM | 54.5 µM | 47.1 µM | > 100 µM | > 100 µM |
| O=C(NCCc1ccc(F)cc1)c1cc(/C=C/c2cc(O)ccc2O)ccc1O | 15 µM | 10.1 µM | 22 µM | 4.88 µM | 8.44 µM | > 100 µM | 5.84 µM | 27.9 µM | 20.8 µM | > 100 µM |
| C/C(=C/CC[C@](C)(OC1OC(CO)C(O)C(O)C1OC1OC(C)C(O)C(O)C1O)[C@H]1CC[C@]2(C)[C@@H]1CC[C@@H]1[C@@]3(C)CC[C@H](O)C(C)(C)[C@@H]3C[C@H](O)[C@]12C)CO (stereo not given in full) | > 100 µM | > 100 µM | > 100 µM | > 100 µM | > 100 µM | > 100 µM | > 100 µM | > 100 µM | > 100 µM | > 100 µM |
| O=C(O)CC(Cc1ccccc1)C(=O)O (stereo not given) | > 100 µM | > 100 µM | > 100 µM | > 100 µM | > 100 µM | > 100 µM | > 100 µM | > 100 µM | > 100 µM | > 100 µM |
| CCCc1c(OC)c(O)c2c(=O)cc(OC)c3c4c(OC)cc(=O)c5c(O)c(OC)c(CCC)c(c1c23)c54 | 16.5 µM | 26.5 µM | 14.3 µM | 9.53 µM | 13.1 µM | > 100 µM | 34.7 µM | 76.5 µM | 16.8 µM | 16.9 µM |
| CN(CCN(C)Cc1ccc(Cl)c(Cl)c1)CCN1CCCC1 | > 100 µM | > 85.1 µM | 24.3 µM | 46.9 µM | > 100 µM | 32.4 µM | > 59.7 µM | > 100 µM | > 100 µM | > 100 µM |
| CC1CCC(O)/C=C/C(=O)OC(C)C(O)/C=C/C(=O)O1 (stereo not given) | > 100 µM | > 100 µM | > 100 µM | > 58.6 µM | > 100 µM | > 100 µM | > 100 µM | > 100 µM | > 100 µM | > 100 µM |
| CC(CCC(=O)O)(c1cc(Br)c(O)c(Br)c1)c1cc(Br)c(O)c(Br)c1 | > 100 µM | > 100 µM | > 100 µM | > 100 µM | > 100 µM | > 100 µM | > 100 µM | > 100 µM | > 100 µM | > 100 µM |
| Cc1cc(S(=O)(=O)Nc2nc(N)n(-c3ccccc3)n2)c(S)cc1Cl | > 100 µM | > 100 µM | > 100 µM | > 100 µM | > 100 µM | > 100 µM | > 100 µM | > 100 µM | > 100 µM | > 100 µM |
